{"source": "patent US9271991B2", "about": "“Trimegestone (TMG) for treatment of preterm birth” (Dignity Health, priority 2010, dated 2016)", "origin": "cited, not measured here", "biological_target": "T1, androgen receptor (Homo sapiens, UniProt P10275)", "T1 sequence (P10275 1-920)": "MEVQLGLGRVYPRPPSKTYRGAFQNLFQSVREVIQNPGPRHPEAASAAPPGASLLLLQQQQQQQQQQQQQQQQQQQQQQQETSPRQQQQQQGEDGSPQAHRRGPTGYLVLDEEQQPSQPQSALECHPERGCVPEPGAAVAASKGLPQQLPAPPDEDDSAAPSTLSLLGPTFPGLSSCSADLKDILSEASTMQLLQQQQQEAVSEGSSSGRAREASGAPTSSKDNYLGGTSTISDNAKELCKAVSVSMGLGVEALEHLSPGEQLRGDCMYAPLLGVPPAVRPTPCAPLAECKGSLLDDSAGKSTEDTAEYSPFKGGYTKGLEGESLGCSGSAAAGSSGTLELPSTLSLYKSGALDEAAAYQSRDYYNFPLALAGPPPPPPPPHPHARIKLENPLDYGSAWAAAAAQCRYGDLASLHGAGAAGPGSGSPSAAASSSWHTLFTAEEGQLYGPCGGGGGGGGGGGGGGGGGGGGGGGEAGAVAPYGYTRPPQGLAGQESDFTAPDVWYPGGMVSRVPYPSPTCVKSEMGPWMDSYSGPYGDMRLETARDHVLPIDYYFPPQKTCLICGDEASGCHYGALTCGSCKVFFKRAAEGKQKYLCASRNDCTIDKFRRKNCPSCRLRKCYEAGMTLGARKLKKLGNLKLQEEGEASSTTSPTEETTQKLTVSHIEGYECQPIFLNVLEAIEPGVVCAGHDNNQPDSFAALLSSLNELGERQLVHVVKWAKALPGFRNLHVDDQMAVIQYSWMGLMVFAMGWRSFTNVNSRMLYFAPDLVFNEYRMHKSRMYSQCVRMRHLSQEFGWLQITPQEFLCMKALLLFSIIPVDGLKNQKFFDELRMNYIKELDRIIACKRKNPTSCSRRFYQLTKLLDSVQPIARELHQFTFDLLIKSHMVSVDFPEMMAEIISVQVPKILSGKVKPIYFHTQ", "details": "cited from earlier work"}
{"smiles": "C[C@H](O)C(=O)[C@@]1(C)CC[C@H]2[C@@H]3CCC4=CC(=O)CCC4=C3CC[C@@]21C", "note": "[TMG, trimegestone]", "values": [{"measurement": "affinity to the androgen receptor", "result": "low affinity"}]}
